According to the kinase profiling compilation of Christmann-Franck et al. (2016):

How the values were obtained:
Assay in all cases: KINOMEscan competition binding
[1] = target: ACVR2B (human) (UniProt Q13705); details: compound 10.0 µM
[2] = target: BMP2K (human) (UniProt Q9NSY1); details: compound 10.0 µM
[3] = target: CDK16 (human) (UniProt Q00536); details: compound 10.0 µM
[4] = target: CDK7 (human) (UniProt P50613); details: compound 10.0 µM
[5] = target: CLK2 (human) (UniProt P49760); details: for kinase still bound, per cent of control: compound 10.0 µM
[6] = target: CLK3 (human) (UniProt P49761); details: compound 10.0 µM
Chain of CLK3 (human) (P49761 whole entry, looked up): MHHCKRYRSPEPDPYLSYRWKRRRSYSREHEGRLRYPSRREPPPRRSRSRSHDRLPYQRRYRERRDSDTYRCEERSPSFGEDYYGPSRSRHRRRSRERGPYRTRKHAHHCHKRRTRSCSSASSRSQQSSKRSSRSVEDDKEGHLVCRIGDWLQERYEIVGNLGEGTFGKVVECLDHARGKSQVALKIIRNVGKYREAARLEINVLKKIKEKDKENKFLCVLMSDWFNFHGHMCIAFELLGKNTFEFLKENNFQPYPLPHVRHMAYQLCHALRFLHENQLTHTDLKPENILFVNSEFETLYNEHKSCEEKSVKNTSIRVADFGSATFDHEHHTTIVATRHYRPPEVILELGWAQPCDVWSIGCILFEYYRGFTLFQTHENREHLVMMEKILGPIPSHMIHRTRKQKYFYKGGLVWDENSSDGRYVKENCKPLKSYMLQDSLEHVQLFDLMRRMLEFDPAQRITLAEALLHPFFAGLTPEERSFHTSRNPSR

[7] = target: CSNK1E (human) (UniProt P49674); details: compound 10.0 µM
[8] = target: CSNK2A1 (human) (UniProt P68400); details: for kinase still bound, per cent of control: compound 10.0 µM
[9] = target: DAPK2 (human) (UniProt Q9UIK4); details: for kinase still bound, per cent of control: compound 10.0 µM
[10] = target: DAPK3 (human) (UniProt O43293); details: compound 10.0 µM
[11] = target: DCLK3 (human) (UniProt Q9C098); details: compound 10.0 µM
Chain of DCLK3 (human) (Q9C098 whole entry, looked up): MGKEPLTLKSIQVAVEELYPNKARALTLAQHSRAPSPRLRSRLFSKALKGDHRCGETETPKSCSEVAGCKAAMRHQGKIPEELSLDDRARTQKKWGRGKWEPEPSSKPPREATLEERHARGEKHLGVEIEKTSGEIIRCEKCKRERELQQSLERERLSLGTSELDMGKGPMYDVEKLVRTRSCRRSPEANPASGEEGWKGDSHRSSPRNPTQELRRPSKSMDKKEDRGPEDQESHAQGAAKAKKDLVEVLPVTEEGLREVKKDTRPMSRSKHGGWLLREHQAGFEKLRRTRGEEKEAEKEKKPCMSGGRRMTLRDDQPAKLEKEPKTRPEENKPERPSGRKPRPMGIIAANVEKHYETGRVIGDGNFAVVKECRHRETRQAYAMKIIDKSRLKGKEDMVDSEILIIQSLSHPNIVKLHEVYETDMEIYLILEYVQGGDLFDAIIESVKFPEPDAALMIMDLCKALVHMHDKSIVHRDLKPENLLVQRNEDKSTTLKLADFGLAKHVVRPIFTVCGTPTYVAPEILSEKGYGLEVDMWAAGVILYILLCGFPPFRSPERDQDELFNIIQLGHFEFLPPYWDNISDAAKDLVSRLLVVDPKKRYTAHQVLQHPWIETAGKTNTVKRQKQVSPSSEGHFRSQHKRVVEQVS

[12] = target: DMPK (human) (UniProt Q09013); details: compound 10.0 µM
[13] = tested on: EGFR (human), P00533 [747-751 del / S ins]; details: compound 10.0 µM
[14] = tested on: FLT3 (human), P36888 [D835Y]; details: compound 10.0 µM
[15] = tested on: FLT3 (human), P36888 [N841I]; details: compound 10.0 µM
[16] = target: HIPK1 (human) (UniProt Q86Z02); details: compound 10.0 µM
Chain of HIPK1 (human) (Q86Z02 whole entry, looked up): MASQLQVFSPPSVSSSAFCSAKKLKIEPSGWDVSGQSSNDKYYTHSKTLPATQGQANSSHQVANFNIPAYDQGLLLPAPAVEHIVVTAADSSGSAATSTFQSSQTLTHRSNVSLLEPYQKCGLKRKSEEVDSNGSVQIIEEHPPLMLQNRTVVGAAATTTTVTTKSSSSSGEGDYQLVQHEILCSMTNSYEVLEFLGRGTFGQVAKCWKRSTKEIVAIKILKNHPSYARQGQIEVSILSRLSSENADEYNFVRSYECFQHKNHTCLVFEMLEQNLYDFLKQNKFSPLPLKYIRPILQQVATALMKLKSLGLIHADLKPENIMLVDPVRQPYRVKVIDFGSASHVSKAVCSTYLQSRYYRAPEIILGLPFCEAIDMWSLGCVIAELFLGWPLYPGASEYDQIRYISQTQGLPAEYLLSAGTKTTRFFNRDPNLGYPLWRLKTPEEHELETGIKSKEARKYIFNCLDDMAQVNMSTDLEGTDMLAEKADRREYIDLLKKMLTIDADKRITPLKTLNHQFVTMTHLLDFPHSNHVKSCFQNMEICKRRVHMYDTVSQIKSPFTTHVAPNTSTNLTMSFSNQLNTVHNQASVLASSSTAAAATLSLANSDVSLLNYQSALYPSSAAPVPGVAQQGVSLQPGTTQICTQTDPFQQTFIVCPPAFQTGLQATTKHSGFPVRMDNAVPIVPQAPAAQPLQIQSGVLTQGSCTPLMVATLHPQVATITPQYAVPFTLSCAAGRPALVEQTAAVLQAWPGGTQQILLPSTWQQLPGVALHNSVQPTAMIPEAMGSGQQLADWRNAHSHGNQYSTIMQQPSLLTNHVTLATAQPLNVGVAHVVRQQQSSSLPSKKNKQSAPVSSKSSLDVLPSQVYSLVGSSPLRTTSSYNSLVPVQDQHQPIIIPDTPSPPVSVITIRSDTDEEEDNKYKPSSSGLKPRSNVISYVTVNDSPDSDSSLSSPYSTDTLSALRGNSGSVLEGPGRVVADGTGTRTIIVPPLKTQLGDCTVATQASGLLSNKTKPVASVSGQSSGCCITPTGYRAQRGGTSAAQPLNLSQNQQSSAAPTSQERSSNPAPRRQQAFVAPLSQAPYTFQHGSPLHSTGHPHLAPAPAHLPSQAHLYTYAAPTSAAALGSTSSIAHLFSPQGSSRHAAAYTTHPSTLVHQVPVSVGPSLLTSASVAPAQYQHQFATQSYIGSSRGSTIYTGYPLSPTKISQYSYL

[17] = target: JAK3 JH1 catalytic (human) (UniProt P52333); details: compound 10.0 µM
Chain of JAK3 JH1 catalytic (human) (P52333 whole entry, looked up): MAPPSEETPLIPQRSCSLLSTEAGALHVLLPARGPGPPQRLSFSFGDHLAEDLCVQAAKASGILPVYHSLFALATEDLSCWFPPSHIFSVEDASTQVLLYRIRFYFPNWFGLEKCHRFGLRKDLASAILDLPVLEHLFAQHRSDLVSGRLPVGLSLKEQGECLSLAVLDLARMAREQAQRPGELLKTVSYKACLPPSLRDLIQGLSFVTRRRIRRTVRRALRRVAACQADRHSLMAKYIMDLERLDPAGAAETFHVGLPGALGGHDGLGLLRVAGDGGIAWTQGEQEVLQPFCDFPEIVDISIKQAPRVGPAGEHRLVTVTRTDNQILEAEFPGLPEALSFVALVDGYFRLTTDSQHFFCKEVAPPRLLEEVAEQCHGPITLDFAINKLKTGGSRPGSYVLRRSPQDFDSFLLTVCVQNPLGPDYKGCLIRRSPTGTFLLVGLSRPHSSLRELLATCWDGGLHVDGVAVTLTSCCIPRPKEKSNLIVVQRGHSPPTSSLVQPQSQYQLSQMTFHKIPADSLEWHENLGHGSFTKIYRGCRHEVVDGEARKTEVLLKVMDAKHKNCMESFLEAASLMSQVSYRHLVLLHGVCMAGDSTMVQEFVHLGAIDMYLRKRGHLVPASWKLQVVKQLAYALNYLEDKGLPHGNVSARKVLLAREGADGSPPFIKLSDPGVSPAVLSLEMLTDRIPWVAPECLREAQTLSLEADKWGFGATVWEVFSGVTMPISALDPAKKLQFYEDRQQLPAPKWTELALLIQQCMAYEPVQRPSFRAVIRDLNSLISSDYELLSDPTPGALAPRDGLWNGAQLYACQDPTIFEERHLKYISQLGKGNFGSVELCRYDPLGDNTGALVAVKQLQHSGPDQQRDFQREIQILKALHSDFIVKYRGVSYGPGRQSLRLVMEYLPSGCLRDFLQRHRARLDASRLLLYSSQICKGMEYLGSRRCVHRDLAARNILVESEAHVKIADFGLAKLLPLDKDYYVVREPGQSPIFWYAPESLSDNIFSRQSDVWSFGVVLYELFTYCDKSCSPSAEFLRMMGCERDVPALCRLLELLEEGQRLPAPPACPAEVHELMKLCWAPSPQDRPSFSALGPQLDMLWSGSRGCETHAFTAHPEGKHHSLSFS

[18] = tested on: KIT (human), P10721 [D816V]; details: compound 10.0 µM
[19] = tested on: KIT (human), P10721 [V559D/T670I]; details: compound 10.0 µM
[20] = tested on: KIT (human), P10721 [V559D/V654A]; details: compound 10.0 µM
[21] = tested on: KIT (human), P10721 [V559D]; details: compound 10.0 µM
[22] = target: MAP2K4 (human) (UniProt P45985); details: compound 10.0 µM
[23] = target: MAP4K2 (human) (UniProt Q12851); details: compound 10.0 µM
[24] = target: MINK1 (human) (UniProt Q8N4C8); details: compound 10.0 µM
[25] = target: MKNK1 (human) (UniProt Q9BUB5); details: compound 10.0 µM
[26] = target: MYLK (human) (UniProt Q15746); details: compound 10.0 µM
[27] = target: MYLK4 (human) (UniProt Q86YV6); details: compound 10.0 µM
[28] = target: NEK2 (human) (UniProt P51955); details: compound 10.0 µM
Chain of NEK2 (human) (P51955 whole entry, looked up): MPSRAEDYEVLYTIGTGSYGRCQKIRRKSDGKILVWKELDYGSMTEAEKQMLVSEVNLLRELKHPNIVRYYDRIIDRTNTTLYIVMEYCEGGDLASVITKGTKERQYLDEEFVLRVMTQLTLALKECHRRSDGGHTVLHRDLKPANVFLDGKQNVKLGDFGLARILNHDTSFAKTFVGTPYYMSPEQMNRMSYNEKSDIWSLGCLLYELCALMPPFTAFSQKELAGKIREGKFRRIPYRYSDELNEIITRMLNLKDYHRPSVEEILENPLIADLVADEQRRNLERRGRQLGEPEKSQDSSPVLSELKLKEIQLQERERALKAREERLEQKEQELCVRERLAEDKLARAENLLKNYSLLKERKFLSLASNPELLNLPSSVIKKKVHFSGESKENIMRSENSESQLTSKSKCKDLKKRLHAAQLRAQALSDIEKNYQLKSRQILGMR

[29] = target: PHKG2 (human) (UniProt P15735); details: compound 10.0 µM
Chain of PHKG2 (human) (P15735 whole entry, looked up): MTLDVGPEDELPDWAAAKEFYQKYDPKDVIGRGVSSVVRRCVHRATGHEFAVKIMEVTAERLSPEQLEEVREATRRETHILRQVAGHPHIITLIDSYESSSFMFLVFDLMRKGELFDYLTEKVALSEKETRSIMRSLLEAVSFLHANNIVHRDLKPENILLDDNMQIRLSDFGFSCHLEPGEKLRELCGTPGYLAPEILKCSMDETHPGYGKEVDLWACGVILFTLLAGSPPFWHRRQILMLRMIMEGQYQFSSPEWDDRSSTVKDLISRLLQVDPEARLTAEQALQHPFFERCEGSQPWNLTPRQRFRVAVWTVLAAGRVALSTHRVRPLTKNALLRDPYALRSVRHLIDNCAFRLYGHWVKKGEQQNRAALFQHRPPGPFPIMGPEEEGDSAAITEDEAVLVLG

[30] = target: PIM1 (human) (UniProt P11309); details: for kinase still bound, per cent of control: compound 10.0 µM
[31] = target: PIM3 (human) (UniProt Q86V86); details: for kinase still bound, per cent of control: compound 10.0 µM
[32] = target: PIP4K2B (human) (UniProt P78356); details: compound 10.0 µM
[33] = target: PIP5K1A (human) (UniProt Q99755); details: compound 10.0 µM
[34] = target: PRKD1 (human) (UniProt Q15139); details: compound 10.0 µM
[35] = target: RIPK2 (human) (UniProt O43353); details: compound 10.0 µM
[36] = target: RPS6KA6 KD2 (human) (UniProt Q9UK32); details: compound 10.0 µM
[37] = target: SRPK2 (human) (UniProt P78362); details: compound 10.0 µM
[38] = target: STK17A (human) (UniProt Q9UEE5); details: for kinase still bound, per cent of control: compound 10.0 µM
[39] = target: STK33 (human) (UniProt Q9BYT3); details: compound 10.0 µM
[40] = target: TAOK1 (human) (UniProt Q7L7X3); details: compound 10.0 µM
[41] = target: TGFBR2 (human) (UniProt P37173); details: compound 10.0 µM
[42] = target: TNK1 (human) (UniProt Q13470); details: compound 10.0 µM

Chain of CDK16 (human) (Q00536 whole entry, looked up): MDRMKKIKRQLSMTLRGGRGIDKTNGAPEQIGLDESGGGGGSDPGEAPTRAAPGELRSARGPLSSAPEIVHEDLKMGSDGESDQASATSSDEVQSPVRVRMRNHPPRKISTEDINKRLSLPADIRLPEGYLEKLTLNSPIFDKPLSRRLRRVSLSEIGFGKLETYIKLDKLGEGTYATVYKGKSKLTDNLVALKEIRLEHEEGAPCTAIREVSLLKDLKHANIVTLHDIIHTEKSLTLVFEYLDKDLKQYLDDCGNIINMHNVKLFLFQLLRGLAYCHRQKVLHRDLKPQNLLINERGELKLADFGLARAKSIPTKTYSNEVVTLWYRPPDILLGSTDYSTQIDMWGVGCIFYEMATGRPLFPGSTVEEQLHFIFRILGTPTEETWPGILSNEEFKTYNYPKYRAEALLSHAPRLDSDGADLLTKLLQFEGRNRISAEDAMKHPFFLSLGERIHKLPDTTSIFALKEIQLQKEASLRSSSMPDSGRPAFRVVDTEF

SMILES: CN1C(=O)c2ccccc2N(C)c2nc(Nc3ccc(N4CCC(O)CC4)cc3)ncc21
- kinase still bound, per cent of control [1]: 45%
- kinase still bound, per cent of control [2]: 43%
- kinase still bound, per cent of control [3]: 100%
- kinase still bound, per cent of control [4]: 60%
- kinase still bound, per cent of control [5]: 100%
- kinase still bound, per cent of control [6]: 97%
- kinase still bound, per cent of control [7]: 100%
- kinase still bound, per cent of control [8]: 86%
- kinase still bound, per cent of control [9]: 100%
- kinase still bound, per cent of control [10]: 100%
- kinase still bound, per cent of control [11]: 68%
- kinase still bound, per cent of control [12]: 100%
- kinase still bound, per cent of control [13]: 100%
- kinase still bound, per cent of control [14]: 24%
- kinase still bound, per cent of control [15]: 80%
- kinase still bound, per cent of control [16]: 95%
- kinase still bound, per cent of control [17]: 93%
- kinase still bound, per cent of control [18]: 69%
- kinase still bound, per cent of control [19]: 73%
- kinase still bound, per cent of control [20]: 58%
- kinase still bound, per cent of control [21]: 80%
- kinase still bound, per cent of control [22]: 74%
- kinase still bound, per cent of control [23]: 80%
- kinase still bound, per cent of control [24]: 100%
- kinase still bound, per cent of control [25]: 28%
- kinase still bound, per cent of control [26]: 63%
- kinase still bound, per cent of control [27]: 100%
- kinase still bound, per cent of control [28]: 100%
- kinase still bound, per cent of control [29]: 100%
- kinase still bound, per cent of control [30]: 91%
- kinase still bound, per cent of control [31]: 100%
- kinase still bound, per cent of control [32]: 75%
- kinase still bound, per cent of control [33]: 100%
- kinase still bound, per cent of control [34]: 98%
- kinase still bound, per cent of control [35]: 66%
- kinase still bound, per cent of control [36]: 63%
- kinase still bound, per cent of control [37]: 100%
- kinase still bound, per cent of control [38]: 100%
- kinase still bound, per cent of control [39]: 75%
- kinase still bound, per cent of control [40]: 0.9%
- kinase still bound, per cent of control [41]: 100%
- kinase still bound, per cent of control [42]: 0.95%

SMILES: COc1cc(N2CCN(C)CC2)ccc1Nc1ncc2c(n1)N(C)c1sccc1C(=O)N2C
- kinase still bound, per cent of control [1]: 100%
- kinase still bound, per cent of control [2]: 98%
- kinase still bound, per cent of control [3]: 97%
- kinase still bound, per cent of control [4]: 67%
- kinase still bound, per cent of control [5]: 78%
- kinase still bound, per cent of control [6]: 93%
- kinase still bound, per cent of control [7]: 91%
- kinase still bound, per cent of control [8]: 82%
- kinase still bound, per cent of control [9]: 50%
- kinase still bound, per cent of control [10]: 42%
- kinase still bound, per cent of control [11]: 18%
- kinase still bound, per cent of control [12]: 100%
- kinase still bound, per cent of control [13]: 66%
- kinase still bound, per cent of control [14]: 74%
- kinase still bound, per cent of control [15]: 78%
- kinase still bound, per cent of control [16]: 67%
- kinase still bound, per cent of control [17]: 100%
- kinase still bound, per cent of control [18]: 100%
- kinase still bound, per cent of control [19]: 82%
- kinase still bound, per cent of control [20]: 91%
- kinase still bound, per cent of control [21]: 71%
- kinase still bound, per cent of control [22]: 71%
- kinase still bound, per cent of control [23]: 96%
- kinase still bound, per cent of control [24]: 46%
- kinase still bound, per cent of control [25]: 77%
- kinase still bound, per cent of control [26]: 17%
- kinase still bound, per cent of control [27]: 100%
- kinase still bound, per cent of control [28]: 83%
- kinase still bound, per cent of control [29]: 46%
- kinase still bound, per cent of control [30]: 66%
- kinase still bound, per cent of control [31]: 62%
- kinase still bound, per cent of control [32]: 89%
- kinase still bound, per cent of control [33]: 65%
- kinase still bound, per cent of control [34]: 12%
- kinase still bound, per cent of control [35]: 92%
- kinase still bound, per cent of control [36]: 6%
- kinase still bound, per cent of control [37]: 100%
- kinase still bound, per cent of control [38]: 96%
- kinase still bound, per cent of control [39]: 1.2%
- kinase still bound, per cent of control [40]: 18%
- kinase still bound, per cent of control [41]: 94%
- kinase still bound, per cent of control [42]: 7%

SMILES: O=C1NC(=O)/C(=C/c2c[nH]c(=O)c(-c3ccc(N4CCNCC4)nc3)c2)S1
- kinase still bound, per cent of control [1]: 36%
- kinase still bound, per cent of control [2]: 2%
- kinase still bound, per cent of control [3]: 70%
- kinase still bound, per cent of control [4]: 5.6%
- Kd [5]: 150 nM
- kinase still bound, per cent of control [5]: 0%
- kinase still bound, per cent of control [6]: 2.8%
- kinase still bound, per cent of control [7]: 11%
- Kd [8]: 31 nM
- kinase still bound, per cent of control [8]: 0.65%
- Kd [9]: 6.1 nM
- kinase still bound, per cent of control [9]: 0.5%
- kinase still bound, per cent of control [10]: 1%
- kinase still bound, per cent of control [11]: 2%
- kinase still bound, per cent of control [12]: 3.6%
- kinase still bound, per cent of control [13]: 85%
- kinase still bound, per cent of control [14]: 60%
- kinase still bound, per cent of control [15]: 67%
- kinase still bound, per cent of control [16]: 3.5%
- kinase still bound, per cent of control [17]: 4%
- kinase still bound, per cent of control [18]: 76%
- kinase still bound, per cent of control [19]: 72%
- kinase still bound, per cent of control [20]: 99%
- kinase still bound, per cent of control [21]: 70%
- kinase still bound, per cent of control [22]: 57%
- kinase still bound, per cent of control [23]: 32%
- kinase still bound, per cent of control [24]: 42%
- kinase still bound, per cent of control [25]: 80%
- kinase still bound, per cent of control [26]: 42%
- kinase still bound, per cent of control [28]: 13%
- kinase still bound, per cent of control [29]: 6.6%
- Kd [30]: 37 nM
- kinase still bound, per cent of control [30]: 0.95%
- Kd [31]: 3.7 nM
- kinase still bound, per cent of control [31]: 0.65%
- kinase still bound, per cent of control [32]: 1.1%
- kinase still bound, per cent of control [33]: 28%
- kinase still bound, per cent of control [34]: 8.2%
- kinase still bound, per cent of control [35]: 9.9%
- kinase still bound, per cent of control [36]: 29%
- kinase still bound, per cent of control [37]: 10%
- Kd [38]: 190 nM
- kinase still bound, per cent of control [38]: 0.05%
- kinase still bound, per cent of control [39]: 2.7%
- kinase still bound, per cent of control [40]: 24%
- kinase still bound, per cent of control [41]: 18%
- kinase still bound, per cent of control [42]: 100%
